Here are results for two compounds from paper PMC3599263 (DARU Journal of Pharmaceutical Sciences, 2013).

For one test, the target named is T1, BuChE from equine serum (Equus caballus, UniProt P81908).
T1 construct: BuChE from equine serum; purchased Sigma-Aldrich (Steinheim, Germany); host or cells: equine serum
Description: biochemical.

Test [1] concerns the target AChE (E.C. 3.1.1.7, Type V-S, from electric eel) (Electrophorus electricus, UniProt O42275). Put plainly: biochemical.

One may read the IC50 as the concentration at which inhibition is half-maximal.

Read-outs that look alike come from different tables or passages of the source.

AChE (E.C. 3.1.1.7, Type V-S, from electric eel), sequence (O42275 24-633): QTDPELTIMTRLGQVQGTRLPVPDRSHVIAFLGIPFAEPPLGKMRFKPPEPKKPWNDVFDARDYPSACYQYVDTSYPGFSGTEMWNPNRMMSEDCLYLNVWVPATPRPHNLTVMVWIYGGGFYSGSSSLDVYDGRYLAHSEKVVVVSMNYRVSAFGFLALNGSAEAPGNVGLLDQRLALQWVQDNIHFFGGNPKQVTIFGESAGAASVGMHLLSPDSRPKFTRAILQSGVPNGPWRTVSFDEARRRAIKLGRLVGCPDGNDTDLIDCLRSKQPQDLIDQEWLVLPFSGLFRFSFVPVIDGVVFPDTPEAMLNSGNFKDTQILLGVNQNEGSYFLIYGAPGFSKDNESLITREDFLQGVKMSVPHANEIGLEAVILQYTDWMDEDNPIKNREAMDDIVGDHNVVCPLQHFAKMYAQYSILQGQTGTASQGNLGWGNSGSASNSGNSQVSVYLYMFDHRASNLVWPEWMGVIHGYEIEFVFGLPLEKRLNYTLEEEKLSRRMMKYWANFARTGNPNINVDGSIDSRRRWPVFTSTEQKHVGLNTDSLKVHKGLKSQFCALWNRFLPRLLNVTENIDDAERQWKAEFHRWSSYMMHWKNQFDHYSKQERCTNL
T1 sequence (P81908 whole entry): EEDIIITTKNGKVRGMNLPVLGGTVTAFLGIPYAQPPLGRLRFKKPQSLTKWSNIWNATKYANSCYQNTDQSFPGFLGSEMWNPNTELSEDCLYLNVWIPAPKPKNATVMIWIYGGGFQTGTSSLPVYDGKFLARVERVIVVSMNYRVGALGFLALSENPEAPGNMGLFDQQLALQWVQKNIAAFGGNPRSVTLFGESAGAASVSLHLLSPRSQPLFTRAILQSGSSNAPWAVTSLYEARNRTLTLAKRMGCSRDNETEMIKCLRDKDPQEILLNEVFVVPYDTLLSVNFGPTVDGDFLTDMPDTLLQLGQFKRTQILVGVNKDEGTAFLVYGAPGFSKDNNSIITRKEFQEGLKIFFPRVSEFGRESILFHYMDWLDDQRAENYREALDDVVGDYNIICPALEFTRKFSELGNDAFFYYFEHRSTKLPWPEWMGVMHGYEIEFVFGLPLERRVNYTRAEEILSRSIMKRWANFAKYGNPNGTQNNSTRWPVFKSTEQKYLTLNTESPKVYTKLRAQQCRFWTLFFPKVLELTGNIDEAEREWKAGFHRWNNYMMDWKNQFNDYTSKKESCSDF

In the case of `COc1cc2c(cc1OC)C(=O)/C(=C/c1cc[n+](Cc3ccccc3)cc1)O2` [5a, (Z)-1-Benzyl-4-((5,6-dimethoxy-3-oxobenzofuran-2(3H)-ylidene)methyl) pyridinium bromide], the IC50 against BuChE from equine serum worked out at 1400 ± 85 nM; in test [1] it was 86 ± 10.9 nM.

Take `COc1cc2c(cc1OC)C(=O)/C(=C/c1cc[n+](Cc3ccc(C)cc3)cc1)O2` [5g, (Z)-1-(4-Methylbenzyl)-4-((5,6-dimethoxy-3-oxobenzofuran-2(3H)-ylidene)methyl) pyridinium chloride]: the IC50 amounted to 7600 ± 260 nM on BuChE from equine serum (Ellman's method, 25°C, pH 8.0, 15 min pre-incubation, mean ± SD of three independent experiments, read-out: BuChE (IC50 ± SD)) and 514 ± 29.5 nM in test [1].
